Assay [1] addresses T1, HPK1 (Homo sapiens, UniProt Q92918).
T1 sequence (Q92918 1-346 limits assumed): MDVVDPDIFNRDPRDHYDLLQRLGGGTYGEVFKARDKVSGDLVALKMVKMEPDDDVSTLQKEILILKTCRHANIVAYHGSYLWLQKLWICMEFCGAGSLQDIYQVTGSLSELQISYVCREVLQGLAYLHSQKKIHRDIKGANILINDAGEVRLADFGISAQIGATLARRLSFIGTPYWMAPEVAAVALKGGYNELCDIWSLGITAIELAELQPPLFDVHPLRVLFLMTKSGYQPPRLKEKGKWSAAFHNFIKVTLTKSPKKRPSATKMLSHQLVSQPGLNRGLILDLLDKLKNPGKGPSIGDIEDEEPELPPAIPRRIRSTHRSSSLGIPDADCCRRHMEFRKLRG
The assay can be described thus: HPK1 kinase activity assay (ADP-Glo). The note with it: HPK1 Kinase activity IC50 (nM), 1 nM HPK1, 10 μM ATP, 0.1 μg/μL MBP. (In general: In ADP-Glo the light output rises with the ADP produced.)

For assay [2], the target named is HPK1 (Homo sapiens, UniProt Q92918). In words: SLP76 phosphorylation assay (intracellular HPK1 inhibitory activity, p-SLP76 Ser376 sandwich ELISA). The note with it: p-SLP76 IC50(nM), Jurkat, Clone E6-1 cells; 1 h compound pre-incubation, anti-CD3 beads stimulation 20 min; SLP76 phosphorylation at S376. Background: In an ELISA, binding on a coated surface is turned into a signal by an enzyme label.
Target sequence in this assay (Q92918 whole entry): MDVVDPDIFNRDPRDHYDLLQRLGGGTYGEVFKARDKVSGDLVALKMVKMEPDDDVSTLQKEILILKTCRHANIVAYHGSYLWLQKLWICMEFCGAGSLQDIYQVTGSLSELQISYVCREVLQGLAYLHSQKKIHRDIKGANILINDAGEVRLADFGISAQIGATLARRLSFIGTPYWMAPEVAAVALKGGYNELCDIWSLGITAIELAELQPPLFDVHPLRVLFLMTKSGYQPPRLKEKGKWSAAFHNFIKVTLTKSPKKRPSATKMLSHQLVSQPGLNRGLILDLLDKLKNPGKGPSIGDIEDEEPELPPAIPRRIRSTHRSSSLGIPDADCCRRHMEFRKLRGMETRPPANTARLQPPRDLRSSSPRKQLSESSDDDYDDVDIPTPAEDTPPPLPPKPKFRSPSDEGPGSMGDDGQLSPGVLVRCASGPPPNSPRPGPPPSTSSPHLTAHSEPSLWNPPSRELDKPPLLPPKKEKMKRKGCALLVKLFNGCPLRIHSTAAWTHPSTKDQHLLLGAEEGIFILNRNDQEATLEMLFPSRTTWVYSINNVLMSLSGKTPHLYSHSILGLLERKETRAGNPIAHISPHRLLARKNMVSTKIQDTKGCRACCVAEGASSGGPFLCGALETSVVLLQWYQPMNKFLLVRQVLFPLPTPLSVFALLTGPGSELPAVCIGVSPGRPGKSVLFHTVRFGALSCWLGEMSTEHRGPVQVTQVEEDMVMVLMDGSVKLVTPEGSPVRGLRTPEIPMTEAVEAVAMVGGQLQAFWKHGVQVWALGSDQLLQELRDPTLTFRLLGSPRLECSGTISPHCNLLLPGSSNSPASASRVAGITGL
Method: Intracellular HPK1 inhibitory activity was tested by the detection of SLP76 phosphorylation at S376.
Preparation of 1000× drug stock plate: a 1000× compound stock plate was prepared. […] The compound stock plate was sealed with a sealing film and stored in a −20° C. refrigerator for later use.
Preparation of Beads wash buffer: 0.1 mL FBS and 0.4 mL 0.5 M EDTA (with a final concentration of 2 mM) were added to 100 mL PBS and stored in a 4° C. refrigerator for later use.
100× Protease Inhibitor Cocktail in 1/20 total volume was added and stored on wet ice for later use. The buffer was ready to use.
Cell inoculation and dosing: the 1000× drug stock plate was taken and melted at room temperature in the dark. […] Jurkat cells in the logarithmic growth phase were selected and collected. […] The cells were inoculated into a 96-well plate (the volume was 90 μL per well), and a blank control well (without cells inoculation, and in which 110 μL of medium was added) was set. 10 μL of a drug-containing culture medium (10×) was transferred from the 10× drug intermediate plate into the 96-well cell plate (with a final concentration of 0.1% DMSO), and set a DMSO control group (in which 0.1% DMSO was added to the treated cells), a stimulated control group (in which 10 μL of culture medium was added to treat cells) and an unstimulated group (in which 10 μL of culture medium was added to treat cells). The wells were duplicated, gently patted, mixed, and then placed into a 5% CO2 incubator at 37° C. for 1 h.
Anti-CD3 beads stimulation: Dynabeads anti-human CD3 was taken, shaken, and mixed for 60 s. The required volume of beads was pipetted, and an equal volume or at least 1 mL of washing solution was added to wash once. Fresh complete medium was then added to resuspend and adjust the density of the beads to 4×10^7/mL, and the beads were placed on ice for later use. At the end of drug pre-incubation, the cell culture plate was taken out. 10 μL Dynabeads anti-human CD3 was added to each well to treat the cells, and 10 μL the culture medium was added to the unstimulated group. The cell culture plate was shaken to mix well at 2500 rpm for 10 s, and then placed into a 5% CO2 incubator at 37° C. and continued to culture for 20 min.
Detection of p-SLP76 protein level. PathScan Phospho-SLP-76 (Ser376) Sandwich ELISA Kit was applied to detect p-SLP76 protein level. At the end of the Anti-CD3 beads stimulation, the cell culture plate was removed from the incubator. […] After lysis, the cell culture plate was centrifuged at 4° C., 400×g for 5 min. 25 μL of sample and 75 μL of sample diluent were added to each well, and the plate was placed in a 5% CO2 incubator at 37° C. for 2 h. The subsequent detection steps were carried out following the kit instructions, and the absorbance (OD value) of each well was read at 450 nm by a microplate reader.

The values below come from US20240182465A1 (GENFLEET THERAPEUTICS (SHANGHAI) INC., priority 2021, published 2024).

As usually defined, the IC50 is the midpoint of a concentration-inhibition curve. A higher IC50 goes with weaker potency in that assay. For `CC(=O)N1CCc2c(cc(-c3cnc4[nH]cc(C)c4c3)cc2[C@@H]2CCCN2)C1` [Compound Z139, (S)-1-(7-(3-methyl-1H-pyrrolo[2,3-b]pyridin-5-yl)-5-(pyrrolidin-2-yl)-3,4-dihydroisoquinolin-2(1H)-yl)ethan-1-one], the IC50 was 0.39 nM at HPK1 [1] and 159 nM at HPK1 [2].

On to `Cc1c[nH]c2ncc(-c3cc4c(c([C@@H]5CCCN5)c3)CCN(CC(F)(F)F)C4)cc12` [Compound Z308, (S)-7-(3-methyl-1H-pyrrolo[2,3-b]pyridin-5-yl)-5-(pyrrolidin-2-yl)-2-(2,2,2-trifluoroethyl)-1,2,3,4-tetrahydroisoquinoline], for which the IC50 at HPK1 [1] turned out to be 2.06 nM; against HPK1 [2], 441 nM.

As to `CN(C)C(=O)c1ccc(-c2c[nH]c3ncc(-c4cc5c(c([C@@H]6CCCN6)c4)COCC5)cc23)cn1` [Compound Z54-1, (S)—N,N-dimethyl-5-(5-(8-(pyrrolidin-2-yl)isochroman-6-yl)-1H-pyrrolo[2,3-b]pyridin-3-yl)pyridine carboxamide], the half-inhibitory concentration (IC50) against HPK1 [1] stood at 0.6 nM; against HPK1 [2], 401 nM.

For `Cc1c[nH]c2ncc(-c3cc4c(c([C@@H]5CCCN5)c3)CN(C(=O)c3cn(C)nc3C(F)(F)F)CC4)cc12` [Compound Z337, [6-(3-methyl-1H-pyrrolo[2,3-b]pyridin-5-yl)-8-[(2S)-pyrrolidin-2-yl]-3,4-dihydro-1H-isoquinolin-2-yl]-[l-methyl-3-(trifluoromethyl)pyrazol-4-yl]methanone], the IC50 on HPK1 [1] turned out to be 1.57 nM; at HPK1 [2] it was 359 nM.

For the molecule `Cc1c[nH]c2ncc(-c3cc4c(c([C@@H]5CCCN5)c3)CCN(C(=O)[C@@](C)(O)C(F)(F)F)C4)cc12` [Compound Z285, (R)-3,3,3-trifluoro-2-hydroxy-2-methyl-1-(7-(3-methyl-1H-pyrrolo[2,3-b]pyridin-5-yl)-5-((S)-pyrrolidin-2-yl)-3,4-dihydroisoquinolin-2(1H)-yl)propan-1-one], the half-maximal inhibitory concentration (IC50) at HPK1 [1] turned out to be 0.91 nM; against HPK1 [2], 323 nM.

In the case of `COCC(=O)N1CCc2cc(-c3cnc4[nH]cc(C)c4c3)cc([C@@H]3CCCN3)c2C1` [Compound Z121, (S)-1-(6-(3-methyl-1H-pyrrolo[2,3-b]pyridin-5-yl)-8-(pyrrolidin-2-yl)-3,4-dihydroisoquinolin-2(1H)-yl)methoxyethyl ketone], the IC50 at HPK1 [1] was 0.5 nM; against HPK1 [2], 185 nM.

As to `Cc1c[nH]c2ncc(-c3cc4c(c([C@@H]5CCCN5)c3)CN(C(=O)c3ccccc3)CC4)cc12` [Compound Z123], the figures for the IC50 at HPK1 [1] and against HPK1 [2] were 1.35 nM and 343 nM, respectively.

`Cc1c[nH]c2ncc(-c3cc4c(c([C@@H]5CCCN5)c3)CN(C(=O)N3CCOCC3)CC4)cc12` [Compound Z356, (S)-(6-(3-methyl-1H-pyrrolo[2,3-b]pyridin-5-yl)-8-(pyrrolidin-2-yl)-3,4-dihydroisoquinolin-2(1H)-yl) (morpholino)methanone]: the concentration for half-maximal inhibition (IC50) at HPK1 [1] worked out at 0.28 nM; at HPK1 [2] it was 62.1 nM.

As for `Cc1c[nH]c2ncc(-c3cc4c(c([C@@H]5CCCN5)c3)CCN(C(=O)C3(O)CC3)C4)cc12` [Compound Z310, (S)-(1-hydroxycyclopropyl)(7-(3-methyl-1H-pyrrolo[2,3-b]pyridin-5-yl)-5-(pyrrolidin-2-yl)-3,4-dihydroisoquinolin-2(1H)-yl)methanone], the IC50 against HPK1 [1] turned out to be 1.79 nM; at HPK1 [2], 567 nM.

In the case of `CC(=O)N1CCc2cc(-c3cnc4[nH]cc(C)c4c3)cc([C@@H]3COCCN3)c2C1` (single isomer, unassigned) [Compound Z119-1], the IC50 came out at 1.06 nM on HPK1 [1] and 390 nM on HPK1 [2].

With `N#CC1(c2c[nH]c3ncc(-c4cc5c(c([C@@H]6CCCN6)c4)COCC5)cc23)CC1` [Compound Z137, (S)-1-(5-(8-(pyrrolidin-2-yl)isochroman-6-yl)-1H-pyrrolo[2,3-b]pyridin-3-yl)cyclopropane-1-carbonitrile], the figures for the IC50 against HPK1 [1] and at HPK1 [2] were 0.37 nM and 159 nM, respectively.

For the molecule `Cc1c[nH]c2ncc(-c3cc4c(c([C@@H]5CCCN5)c3)COC3(CC3)C4)cc12` [Compound Z229, (S)-3-methyl-5-(8′-(pyrrolidin-2-yl)spiro[cyclopropane-1,3′-isochroman]-6′-yl)-1H-pyrrolo[2,3-b]pyridine], the IC50 on HPK1 [1] turned out to be 0.46 nM; against HPK1 [2], 276 nM.

`C[C@](O)(C(=O)N1CCc2cc(-c3cnc4[nH]cc(Cl)c4c3)cc([C@@H]3CCCN3)c2C1)C(F)(F)F` [Compound Z405, (S)-1-(6-(3-chloro-1H-pyrrolo[2,3-b]pyridin-5-yl)-8-((S)-pyrrolidin-2-yl)-3,4-dihydroisoquinolin-2(1H)-yl)-3,3,3-trifluoro-2-hydroxy-2-methylpropan-1-one]: the IC50 stood at 0.23 nM at HPK1 [1] and 89.8 nM against HPK1 [2].

For the molecule `Cc1c[nH]c2ncc(-c3cc4c(c(C(C)N(C)C)c3)COCC4)cc12` (stereo not shown) [Compound Z108-1, N,N-dimethyl-1-(6-(3-methyl-1H-pyrrolo[2,3-b]pyridin-5-yl)isochroman-8-yl)ethan-1-amine], the IC50 against HPK1 [1] was found to be 4.12 nM; against HPK1 [2] it was 571 nM.

As to `Cc1c[nH]c2ncc(-c3cc4c(c([C@@H]5CCCN5)c3)CN(C(=O)c3cnc(C5CC5)nc3)CC4)cc12` [Compound Z351, (S)-(2-cyclopropylpyrimidin-5-yl)(6-(3-methyl-1H-pyrrolo[2,3-b]pyridin-5-yl)-8-(pyrrolidin-2-yl)-3,4-dihydroisoquinolin-2(1H)-yl)methanone], the IC50 amounted to 0.87 nM on HPK1 [1] and 126 nM at HPK1 [2].

For the molecule `Cc1ccc(-c2c[nH]c3ncc(-c4cc5c(c([C@@H]6CCCN6)c4)COCC5)cc23)cn1` [Compound Z212, (S)-3-(6-methylpyridin-3-yl)-5-(8-(pyrrolidin-2-yl)isochroman-6-yl)-1H-pyrrolo[2,3-b]pyridine], the IC50 against HPK1 [1] came to 3.76 nM; against HPK1 [2], 909 nM.

`Cc1c[nH]c2ncc(-c3cc4c(c([C@@H]5CCCN5)c3)CN(C(=O)c3cnn(C(F)F)c3)CC4)cc12` [Compound Z336, (S)-(1-(difluoromethyl)-1H-pyrazol-4-yl)-[6-(3-methyl-1H-pyrrolo[2,3-b]pyridin-5-yl)-8-[pyrrolidin-2-yl]-3,4-dihydroisoquinolin-2(1H)-yl]methanone]: the IC50 against HPK1 [1] was 0.36 nM; on HPK1 [2] it was 174 nM.

For the molecule `CO[C@H]1CCN(C(=O)N2CCc3cc(-c4cnc5[nH]cc(C)c5c4)cc([C@@H]4CCCN4)c3C2)C1` [Compound Z357-1], the IC50 at HPK1 [1] came to 0.31 nM; on HPK1 [2], 99.3 nM.

For the molecule `C[C@H](C#N)c1c[nH]c2ncc(-c3cc4c(c([C@@H]5CCCN5)c3)COCC4)cc12` (single isomer, unassigned) [Compound Z104-1], the values for the 50% inhibitory concentration (IC50) at HPK1 [1] and at HPK1 [2] were 0.62 nM and 126 nM, respectively.

For the molecule `Cc1c[nH]c2ncc(-c3cc4c(c([C@@H]5CCCN5)c3)CCN(C(=O)C(C)(C)C)C4)cc12` [Compound Z300, (S)-2,2-dimethyl-1-(7-(3-methyl-1H-pyrrolo[2,3-b]pyridin-5-yl)-5-(pyrrolidin-2-yl)-3,4-dihydroisoquinolin-2(1H)-yl)propan-1-one], the IC50 was determined as 0.64 nM at HPK1 [1] and 274 nM on HPK1 [2].
